# Assay results reported in patent US20180110785A1, “METHODS AND COMPOSITIONS FOR AMELIORATING SYMPTOMS ASSOCIATED WITH CHROMOSOMAL ABNORMALITIES” (priority 2014, published 2018).
# Several values for one entry are separate records, joined by “and”; a condition that tells them apart may be missing. Equal entries are not always repeated. Entries after “also recorded” stand apart in the source; their conditions may differ. Where two headings read alike, the source gives them in different places.
# What was measured:
# [1] = system: Schaffer collateral-CA1 synapses of Ts65Dn mice; settings: cited from earlier work; for TBS-induced LTP, fEPSP: hippocampal slices from TsSAG mice
# Ts65Dn mice [2] = settings: TsSAG vs EuVeh and TsVeh; cited from earlier work
# Ts65Dn mice [3] = settings: cited from earlier work
# Ts65Dn mice [4] = system: Ts65Dn mice; design: cerebellar cross-sectional area at the midline and GC density: dose or concentration left out as unconfirmed; settings: cited from earlier work
# [5] = system: cerebellar Purkinje cells of Ts65Dn and euploid mice; settings: cited from earlier work
# Ts65Dn mice [6] = settings: SAG-treated mice, first 4 months of life; cited from earlier work
# [7] = in vivo; cited from earlier work
# primary GCP cultures = settings: compared with Shh-Np; cited from earlier work
# [8] = system: Schaffer collateral-CA1 synapses of Ts65Dn mice; settings: cited from earlier work
# Ts65Dn mice [9] = settings: SAG and BrdU co-injected at P0; cited from earlier work
# Ts65Dn mice [10] = settings: cited from earlier work; remark: listed apart in the source
# [11] = system: Sonic hedgehog (Shh) in parotid saliva; assay: Saliva sonic hedgehog in patients with taste dysfunction after oral theophylline (Example 3), ELISA; type: in vivo, human
# [12] = system: patients with taste dysfunction; assay: Subjective taste acuity and flavor perception in hypogeusic patients after oral theophylline (Example 2); type: in vivo, human; settings: for flavor perception, degree of improvement / taste acuity, degree of improvement: mean ± SEM
# Procedure: Shh was measured in parotid saliva of both normal subjects and in patients with taste dysfunction of multiple etiologies by use of a sensitive spectrophotometric ELISA assay. Taste dysfunction was defined clinically by both subjective changes of taste acuity and flavor perception and by impaired gustometry. Patients were treated with oral theophylline 200-800 mg daily for 2-10 months with saliva Shh and taste function measured at intervals of 2-8 months.
# Subjective statements of taste acuity loss and loss of flavor perception were quantitated by use of a scale from 0-100 with 100 reflecting total loss of taste acuity or flavor perception, 0 reflecting no loss and a number between 0-100 reflecting appropriate degree of loss. […] Mean±SEM of loss degree was measured among all patients and each pathology initiating taste dysfunction.
# Saliva Shh and measurements of taste function by use of subjective responses of acuity and flavor perception and in olfactometry was measured at intervals of 2-6 months in these patients.
# [13] = system: patients with smell loss (hyposmia); assay: Smell function (olfactometry, subjective) in hyposmic patients after oral theophylline; type: in vivo, human
# [14] = system: patients with taste dysfunction; assay: Gustometry (DT, RT, ME for four tastants) before and after theophylline (Example 3)
# [15] = system: Sonic hedgehog (SHH) in nasal mucus; assay: Sonic hedgehog in nasal mucus of hyposmic patients after oral theophylline, spectrophotometric ELISA; type: in vivo, human
# [16] = system: patients with smell loss (hyposmia); settings: prior hyposmic patients treated with oral theophylline (earlier studies); cited from earlier work
# [17] = system: Sonic hedgehog (Shh) in parotid saliva; assay: Sonic hedgehog in parotid saliva of patients with taste dysfunction after oral theophylline (Example 2), ELISA; type: in vivo, human; settings: for saliva sonic hedgehog after treatment with oral theophylline: mean ± SEM
# [18] = system: ShhN (sonic hedgehog) in nasal mucus; assay: ShhN nasal mucus vs PDE inhibitor comparison (Example 10); type: in vivo, human
# [19] = hippocampal slices from Ts65Dn mice
# [20] = patients with taste dysfunction
# [21] = theophylline treated (81), mean ± SEM
compound,measurement,setting,value
CNC1CCC(N(Cc2cccc(-c3ccncc3)c2)C(=O)c2sc3ccccc3c2Cl)CC1 (stereo not drawn) [SAG],TBS-LTP,[1]; [19],rescues attenuated TBS-LTP in hippocampal slices from Ts65Dn mice
same,"TBS-induced LTP, fEPSP",[1]; t=30 min,132.9±2.2 % of baseline
same,"TBS-induced LTP, fEPSP",[1]; t=80 min,127.4±2.0 % of baseline
same,open-field performance (time in periphery or center),Ts65Dn mice [2],no significant differences were observed with TsSAG; also recorded: does not affect open-field performance
same,"Y maze performance (alternation, arm entrances; words)",Ts65Dn mice [3]; Ts65Dn mice,did not have an effect on either outcome in Ts65Dn mice; also recorded: does not improve Y maze performance in Ts65Dn mice
same,Y maze alternation,Ts65Dn mice [3]; TsSAG mice (EuVeh 78%),60%
same,GCP number at P6,"Ts65Dn mice [4]; Ts65Dn mice, SAG subcutaneously on the day of birth",normalized GCP number
same,cerebellar cross-sectional area at the midline and GC density,"Ts65Dn mice [4]; adult (about 16 weeks) Ts65Dn mice, single injection of SAG on the day of birth",had the same cross-sectional area and GC density as EuVeh; also recorded: normalizes cerebellar morphology in adult Ts65Dn mice
same,GCP number at P6,"Ts65Dn mice [4]; euploid mice (EuSAG), single dose of SAG at P0",did not significantly increase GCP number at P6
same,depression of EPSC after induction of LTD,"[5]; Ts65Dn mice, limited to lobule III, P=0.019",more depression of EPSC after the induction of LTD
same,PPR values,"[5]; euploid mice, lobule IX, P=0.005",significantly decreased the PPR values measured in lobule IX
same,EPSC paired-pulse ratios (PPR) of Purkinje cells,"[5]; trisomic mice, lobule III and IX",did not restore the PPR values in trisomic mice
same,tumor formation or complications,Ts65Dn mice [6],no evidence of tumor formation or obvious complications in the first 4 months of life
same,crossing of biological barriers,[7],"crosses the gut, the placenta, and the blood-brain barrier; also recorded: penetrates the blood-brain barrier"
same,mitogenic activity,primary GCP cultures,had mitogenic activity in primary GCP cultures
same,NMDA/AMPA ratio,"[8]; TsSAG, n=11",0.19±0.034
same,NMDA-EPSCs,[8]; [19],partially rescues attenuated NMDA-EPSCs in hippocampal slices from Ts65Dn mice
same,dentate gyrus deficit / proliferation at P6,Ts65Dn mice [9],Dentate gyrus is not affected by SAG treatment
same,MWM search strategies,Ts65Dn mice [10]; TsSAG mice,used the same successful strategies as EuVeh; also recorded: normalizes search strategies of Ts65Dn mice in the MWM
same,performance in MWM / tasks dependent on hippocampus,"Ts65Dn mice [10]; adult Ts65Dn mice, single SAG treatment at P0",normalized performance of adult Ts65Dn mice in the MWM; also recorded: corrects performance of trisomic mice in tasks dependent on hippocampus
same,MWM performance,Ts65Dn mice [10]; euploid mice,had no effect on the performance of euploid mice
"Cn1c(=O)c2[nH]cnc2n(C)c1=O [Theophylline, theophylline]",saliva sonic hedgehog after oral theophylline,"[11]; PIHH (27), mean ± SEM",210 ± 12 pmol/mL
same,saliva sonic hedgehog after oral theophylline,"[11]; allergic rhinitis (26), mean ± SEM",212 ± 14^+ pmol/ml
same,saliva sonic hedgehog after oral theophylline,[11]; anesthesia induced (2),151 pmol/mL
same,saliva sonic hedgehog after oral theophylline,"[11]; congenital (10), mean ± SEM",132 ± 23 pmol/mL
same,saliva sonic hedgehog after oral theophylline,"[11]; head injury (14), mean ± SEM",115 ± 15 pmol/mL
same,increase of saliva Shh levels by theophylline,[11]; [20],~2 fold
same,saliva sonic hedgehog after oral theophylline,[11]; post radiation (1),145 pmol/mL
same,saliva sonic hedgehog,"[11]; theophylline treated patients (81), mean ± SEM",102 ± 10 pmol/mL
same,patients with improvement in both subjective taste acuity and flavor perception,[12]; after oral theophylline,about 60%
same,"flavor perception, improvement number",[12]; all patients (79),45
same,"flavor perception, percent improved",[12]; all patients (79),63%
same,"taste acuity, percent improved",[12]; all patients (79),63%
same,"taste acuity, improvement number","[12]; all patients (79), oral theophylline",45
same,"flavor perception, degree of improvement",[12]; all patients (79),24 ± 4%
same,"taste acuity, degree of improvement",[12]; all patients (79),28 ± 4^+ %
same,"flavor perception, improvement number",[12]; men (38),22
same,"flavor perception, percent improved",[12]; men (38),58%
same,"taste acuity, improvement number",[12]; men (38),21
same,"taste acuity, percent improved",[12]; men (38),55%
same,"flavor perception, degree of improvement",[12]; men (38),18 ± 4%
same,"taste acuity, degree of improvement",[12]; men (38),20 ± 5%
same,taste function after theophylline,[12]; [20],improved both subjective taste function and gustometry
same,"flavor perception, improvement number",[12]; women (41),23
same,"flavor perception, percent improved",[12]; women (41),54%
same,"taste acuity, improvement number",[12]; women (41),24
same,"taste acuity, percent improved",[12]; women (41),59%
same,"flavor perception, degree of improvement",[12]; women (41),36 ± 6%
same,"taste acuity, degree of improvement",[12]; women (41),35 ± 6%
same,"smell improvement, patient number",[13]; PIHH (10),8
same,"smell improvement, percent of patients",[13]; PIHH (10),80%
same,"smell improvement, patient number","[13]; all treated patients (31), oral theophylline",19
same,"smell improvement, percent of patients","[13]; all treated patients, oral theophylline",60% and 61%
same,"smell improvement, patient number",[13]; allergic rhinitis (11),5
same,"smell improvement, percent of patients",[13]; allergic rhinitis (11),45%
same,"smell improvement, patient number",[13]; congenital (9),5
same,"smell improvement, percent of patients",[13]; congenital (9),56%
same,"smell improvement, patient number",[13]; post general anesthesia (1),1
same,"smell improvement, percent of patients",[13]; post general anesthesia (1),100%
same,taste / gustometric function after theophylline,[14]; [20],improved subjectively in taste function; also recorded: improved gustometric functions of treated patients
same,HCl DT,[14]; [21],3.6 ± 0.2
same,HCl ME,[14]; [21],54 ± 5
same,HCl RT,[14]; [21],3.7 ± 0.3
same,NaCl DT (detection threshold),[14]; [21],3.4 ± 0.2
same,NaCl ME (magnitude estimation),[14]; [21],58 ± 5
same,NaCl RT (recognition threshold),[14]; [21],3.6 ± 0.2
same,sucrose DT,[14]; [21],3.3 ± 0.2
same,sucrose ME,[14]; [21],49 ± 5
same,sucrose RT,[14]; [21],3.6 ± 0.2
same,urea DT,[14]; [21],3.9 ± 0.3
same,urea ME,[14]; [21],54 ± 5
same,urea RT,[14]; [21],3.9 ± 0.3
same,"sonic hedgehog concentration in nasal mucus, treatment with oral theophylline","[15]; PIHH patients (10), mean ± SEM","70735 ± 5751^a,a1 (10) pg/ml"
same,"sonic hedgehog concentration in nasal mucus, treatment with oral theophylline","[15]; all hyposmic patients (30 in Table 3, 31 in Table 4), mean ± SEM","49191 ± 1710^c,a1 (30) pg/ml and 49191 ± 1710^a (31) pg/ml"
same,"sonic hedgehog concentration in nasal mucus, treatment with oral theophylline","[15]; allergic rhinitis patients (11), mean ± SEM","24460 ± 2610^a,a1 (11) pg/ml"
same,"sonic hedgehog concentration in nasal mucus, treatment with oral theophylline","[15]; congenital smell loss patients (9), mean ± SEM","3825 ± 474^a,a1 (9) pg/ml"
same,"sonic hedgehog concentration in nasal mucus, treatment with oral theophylline","[15]; hyposmic men (17), oral theophylline 400-800 mg daily for 2-10 months, mean ± SEM","47952 ± 3085^a,a1 (17) pg/ml"
same,"sonic hedgehog concentration in nasal mucus, treatment with oral theophylline","[15]; hyposmic women (13), oral theophylline 400-800 mg daily for 2-10 months, mean ± SEM","3859 ± 303^a,a1 (13) pg/ml"
same,increase of nasal mucus SHH over the untreated state,"[15]; men, oral theophylline",320 times
same,increase of nasal mucus SHH over the untreated state,"[15]; patient post anesthesia, oral theophylline",48 times
same,increase of nasal mucus SHH over the untreated state,"[15]; patients with PIHH, oral theophylline",46 times
same,increase of nasal mucus SHH over the untreated state,"[15]; patients with allergic rhinitis, oral theophylline",over 719 times
same,increase of nasal mucus SHH over the untreated state,"[15]; patients with congenital smell loss, oral theophylline",over 21 times
same,SHH levels in nasal mucus versus untreated state,"[15]; patients with hyposmia, oral theophylline",significantly increased SHH levels in nasal mucus
same,"sonic hedgehog concentration in nasal mucus, treatment with oral theophylline",[15]; post general anesthesia patient (1),57 (1) pg/ml
same,increase of nasal mucus SHH over the untreated state,"[15]; women, oral theophylline",17 times
same,"smell improvement, percent of patients",[16],over 50%
same,saliva sonic hedgehog after treatment with oral theophylline,"[17]; hypogeusic patients after treatment (66), 200-1000 mg, 2-10 months",199 ± 20 pmol/mL
same,saliva sonic hedgehog after treatment with oral theophylline,[17]; men (61) after treatment,180 ± 15 pmol/mL
same,Shh in parotid saliva after oral theophylline,[17]; [20],increased saliva Shh; also recorded: increased in parotid saliva to levels above those in normal subjects or in untreated patients
same,saliva sonic hedgehog after treatment with oral theophylline,[17]; women (58) after treatment,213 ± 33 pmol/mL
O=C1CCc2cc(OCCCCc3nnnn3C3CCCCC3)ccc2N1 [cilostazol],"sonic hedgehog levels in nasal mucus, mean","[18]; Patient ID No. 7, 100 mg cilostazol once per day orally for 4 months",769 pg/mL
O=C(Nc1c(Cl)cncc1Cl)c1ccc(OC(F)F)c(OCC2CC2)c1 [roflumilast],sonic hedgehog levels in nasal mucus,"[18]; Patient ID No. 11, 500 micrograms daliresp (roflumilast) orally once per day for 4 months",6660 pg/mL
